Data published in patent publication US9682994B2, “Inhibitors of retroviral replication” (The Scripps Research Institute, priority 2011, dated 2017).

Legend:
[1] = Hepatic microsomal stability, human; assay type: in vitro ADME; conditions: 1 μM, 0.2-1 mg/ml microsomes, NADPH 1 mM
[2] = Mouse mini-PK, plasma levels by LC-MS/MS; assay type: in vivo, C57Bl-6 mice
Procedure: In vitro studies compared murine and human hepatic microsomes (150 donor mixed male/female pool). […] C57B16 mice were dosed at 10 mg/kg and drug levels were quantitated in plasma at 1, 6, and 24 h by LC-MS/MS (Table 1B).

[3] = biological target: T1, DNA-dependent protein kinase (DNA-PK) catalytic subunit (Homo sapiens, UniProt P78527); experiment: Bio-CA pull-down / mass spectrometry, DNA-PK; assay type: binding
T1 construct: endogenous in cells; host or cells: P42 (HeLa-CD4-LTR-LacZ) cells; HEK293T cells
Procedure: FIG. 14: Bio-CA associated proteins. […] After SDS-PAGE analysis and Coomassie staining, gel slices were trypsin-digested and sent to mass spectrometry analysis.
To identify cellular proteins associated with CA, a biotinylated form of the compound (Bio-CA) was used. […] The Bio-CA was used to cover streptavidin-coated magnetic beads to pull down interacting proteins from either uninfected or chronically infected lysates of cells grown in the presence or absence of CA for 48 hours (FIG. 14D). The identity of the proteins pulled down under the different conditions was determined by HPLC MS/MS analysis. The proteins were identified with a greater than 95% confidence using a proprietary Scripps proteomics software package for protein identification, statistical analysis, and mass/peptide sequence correlation. The HIV proteome was added to the proteomics software search database before analysis. Many proteins were identified in uninfected untreated and in chronically untreated samples (approximately 300), however only 53 were displaced by more than 50% by the presence of CA. Of these 53 proteins, it appears that at least 2 may have a role in HIV-1 replication: DNA-dependent protein kinase catalytic subunit (DNA-PK) and helicase like transcription factor (HLTF).

[4] = tested on: CXCR4, TK, PGK or CD4 promoters; experiment: Transcription from cellular/control promoters; assay type: cell-based
Procedure: FIG. 8C: Luciferase assays of TE671 cells transfected with the indicated promoter or promoter portion driving Luciferase expression. Main consensus bonding sites for transcription factors are indicated. 24 h post transfection cells were split and treated or not with CA. Forty hours later cells were lysed and luciferase activity measured as in FIG. 8A.
FIG. 8D: CEM SS and HeLa-CD4 cells stained for CD4, CXCR4 or isotype control expression followed by flow cytometry analysis.
Similar results were obtained when a Tat-encoding plasmid was transfected into HeLa-CD4 expressing LTR-Luc (FIG. 2B). […] Reporter transcription from heat-inactivated recombinant Tat protein (FIG. 2A), which was used as negative control, reflects Tat-independent activation of the HIV promoter, and accounts for approximately 20% of maximal activation.

[5] = tested on: RNAPII occupancy of the HIV promoter and ORF; experiment: ChIP of RNAPII on HIV promoter and ORF; assay type: cell-based, HIV-1; conditions: 4 days treatment
Procedure: FIG. 3C: ChIP assay of the HIV promoter. […] Lysates were sonicated, the crosslinks were reversed and RNAPII was immunoprecipitated. DNA was measured by qPCR using the indicated set of primers. ChIP values are represented as percentages of input. Error bars, ±s.d. (n=3). *P<0.05; **P<0.01 (unpaired t-test).
Cells were fixed with formaldehyde (1% [vol/vol]) to crosslink the chromatin and incubated at room temperature for 10 min. Crosslinking was arrested by adding glycine[0.125 M] and incubated for an additional 5 min at room temperature. Cells were then pelleted, washed twice with phosphate-buffered saline, ressuspended in SDS lysis buffer, and incubated 10 min on ice. All solutions used prior to the collection of chromatin-antibody complexes contained protease and phosphatase inhibitor cocktail. Cell lysates were sonicated 4 times for 10 s bursts on ice. The sheared chromatin was diluted by the addition of 3 volumes of ChIP dilution buffer (0.01% SDS, 1.1% Triton X-100, 1.2 mM EDTA, 16.7 mM Tris-HCl (pH 8.1), 167 mM NaCl) and pre-cleared with salmon sperm DNA-protein A/G agarose slurry for 2 h. […] The relative proportions of co-immunoprecipitated DNA fragments were determined on the basis of the threshold cycle (CT) for each PCR product. […]

T1 sequence (P78527 whole entry): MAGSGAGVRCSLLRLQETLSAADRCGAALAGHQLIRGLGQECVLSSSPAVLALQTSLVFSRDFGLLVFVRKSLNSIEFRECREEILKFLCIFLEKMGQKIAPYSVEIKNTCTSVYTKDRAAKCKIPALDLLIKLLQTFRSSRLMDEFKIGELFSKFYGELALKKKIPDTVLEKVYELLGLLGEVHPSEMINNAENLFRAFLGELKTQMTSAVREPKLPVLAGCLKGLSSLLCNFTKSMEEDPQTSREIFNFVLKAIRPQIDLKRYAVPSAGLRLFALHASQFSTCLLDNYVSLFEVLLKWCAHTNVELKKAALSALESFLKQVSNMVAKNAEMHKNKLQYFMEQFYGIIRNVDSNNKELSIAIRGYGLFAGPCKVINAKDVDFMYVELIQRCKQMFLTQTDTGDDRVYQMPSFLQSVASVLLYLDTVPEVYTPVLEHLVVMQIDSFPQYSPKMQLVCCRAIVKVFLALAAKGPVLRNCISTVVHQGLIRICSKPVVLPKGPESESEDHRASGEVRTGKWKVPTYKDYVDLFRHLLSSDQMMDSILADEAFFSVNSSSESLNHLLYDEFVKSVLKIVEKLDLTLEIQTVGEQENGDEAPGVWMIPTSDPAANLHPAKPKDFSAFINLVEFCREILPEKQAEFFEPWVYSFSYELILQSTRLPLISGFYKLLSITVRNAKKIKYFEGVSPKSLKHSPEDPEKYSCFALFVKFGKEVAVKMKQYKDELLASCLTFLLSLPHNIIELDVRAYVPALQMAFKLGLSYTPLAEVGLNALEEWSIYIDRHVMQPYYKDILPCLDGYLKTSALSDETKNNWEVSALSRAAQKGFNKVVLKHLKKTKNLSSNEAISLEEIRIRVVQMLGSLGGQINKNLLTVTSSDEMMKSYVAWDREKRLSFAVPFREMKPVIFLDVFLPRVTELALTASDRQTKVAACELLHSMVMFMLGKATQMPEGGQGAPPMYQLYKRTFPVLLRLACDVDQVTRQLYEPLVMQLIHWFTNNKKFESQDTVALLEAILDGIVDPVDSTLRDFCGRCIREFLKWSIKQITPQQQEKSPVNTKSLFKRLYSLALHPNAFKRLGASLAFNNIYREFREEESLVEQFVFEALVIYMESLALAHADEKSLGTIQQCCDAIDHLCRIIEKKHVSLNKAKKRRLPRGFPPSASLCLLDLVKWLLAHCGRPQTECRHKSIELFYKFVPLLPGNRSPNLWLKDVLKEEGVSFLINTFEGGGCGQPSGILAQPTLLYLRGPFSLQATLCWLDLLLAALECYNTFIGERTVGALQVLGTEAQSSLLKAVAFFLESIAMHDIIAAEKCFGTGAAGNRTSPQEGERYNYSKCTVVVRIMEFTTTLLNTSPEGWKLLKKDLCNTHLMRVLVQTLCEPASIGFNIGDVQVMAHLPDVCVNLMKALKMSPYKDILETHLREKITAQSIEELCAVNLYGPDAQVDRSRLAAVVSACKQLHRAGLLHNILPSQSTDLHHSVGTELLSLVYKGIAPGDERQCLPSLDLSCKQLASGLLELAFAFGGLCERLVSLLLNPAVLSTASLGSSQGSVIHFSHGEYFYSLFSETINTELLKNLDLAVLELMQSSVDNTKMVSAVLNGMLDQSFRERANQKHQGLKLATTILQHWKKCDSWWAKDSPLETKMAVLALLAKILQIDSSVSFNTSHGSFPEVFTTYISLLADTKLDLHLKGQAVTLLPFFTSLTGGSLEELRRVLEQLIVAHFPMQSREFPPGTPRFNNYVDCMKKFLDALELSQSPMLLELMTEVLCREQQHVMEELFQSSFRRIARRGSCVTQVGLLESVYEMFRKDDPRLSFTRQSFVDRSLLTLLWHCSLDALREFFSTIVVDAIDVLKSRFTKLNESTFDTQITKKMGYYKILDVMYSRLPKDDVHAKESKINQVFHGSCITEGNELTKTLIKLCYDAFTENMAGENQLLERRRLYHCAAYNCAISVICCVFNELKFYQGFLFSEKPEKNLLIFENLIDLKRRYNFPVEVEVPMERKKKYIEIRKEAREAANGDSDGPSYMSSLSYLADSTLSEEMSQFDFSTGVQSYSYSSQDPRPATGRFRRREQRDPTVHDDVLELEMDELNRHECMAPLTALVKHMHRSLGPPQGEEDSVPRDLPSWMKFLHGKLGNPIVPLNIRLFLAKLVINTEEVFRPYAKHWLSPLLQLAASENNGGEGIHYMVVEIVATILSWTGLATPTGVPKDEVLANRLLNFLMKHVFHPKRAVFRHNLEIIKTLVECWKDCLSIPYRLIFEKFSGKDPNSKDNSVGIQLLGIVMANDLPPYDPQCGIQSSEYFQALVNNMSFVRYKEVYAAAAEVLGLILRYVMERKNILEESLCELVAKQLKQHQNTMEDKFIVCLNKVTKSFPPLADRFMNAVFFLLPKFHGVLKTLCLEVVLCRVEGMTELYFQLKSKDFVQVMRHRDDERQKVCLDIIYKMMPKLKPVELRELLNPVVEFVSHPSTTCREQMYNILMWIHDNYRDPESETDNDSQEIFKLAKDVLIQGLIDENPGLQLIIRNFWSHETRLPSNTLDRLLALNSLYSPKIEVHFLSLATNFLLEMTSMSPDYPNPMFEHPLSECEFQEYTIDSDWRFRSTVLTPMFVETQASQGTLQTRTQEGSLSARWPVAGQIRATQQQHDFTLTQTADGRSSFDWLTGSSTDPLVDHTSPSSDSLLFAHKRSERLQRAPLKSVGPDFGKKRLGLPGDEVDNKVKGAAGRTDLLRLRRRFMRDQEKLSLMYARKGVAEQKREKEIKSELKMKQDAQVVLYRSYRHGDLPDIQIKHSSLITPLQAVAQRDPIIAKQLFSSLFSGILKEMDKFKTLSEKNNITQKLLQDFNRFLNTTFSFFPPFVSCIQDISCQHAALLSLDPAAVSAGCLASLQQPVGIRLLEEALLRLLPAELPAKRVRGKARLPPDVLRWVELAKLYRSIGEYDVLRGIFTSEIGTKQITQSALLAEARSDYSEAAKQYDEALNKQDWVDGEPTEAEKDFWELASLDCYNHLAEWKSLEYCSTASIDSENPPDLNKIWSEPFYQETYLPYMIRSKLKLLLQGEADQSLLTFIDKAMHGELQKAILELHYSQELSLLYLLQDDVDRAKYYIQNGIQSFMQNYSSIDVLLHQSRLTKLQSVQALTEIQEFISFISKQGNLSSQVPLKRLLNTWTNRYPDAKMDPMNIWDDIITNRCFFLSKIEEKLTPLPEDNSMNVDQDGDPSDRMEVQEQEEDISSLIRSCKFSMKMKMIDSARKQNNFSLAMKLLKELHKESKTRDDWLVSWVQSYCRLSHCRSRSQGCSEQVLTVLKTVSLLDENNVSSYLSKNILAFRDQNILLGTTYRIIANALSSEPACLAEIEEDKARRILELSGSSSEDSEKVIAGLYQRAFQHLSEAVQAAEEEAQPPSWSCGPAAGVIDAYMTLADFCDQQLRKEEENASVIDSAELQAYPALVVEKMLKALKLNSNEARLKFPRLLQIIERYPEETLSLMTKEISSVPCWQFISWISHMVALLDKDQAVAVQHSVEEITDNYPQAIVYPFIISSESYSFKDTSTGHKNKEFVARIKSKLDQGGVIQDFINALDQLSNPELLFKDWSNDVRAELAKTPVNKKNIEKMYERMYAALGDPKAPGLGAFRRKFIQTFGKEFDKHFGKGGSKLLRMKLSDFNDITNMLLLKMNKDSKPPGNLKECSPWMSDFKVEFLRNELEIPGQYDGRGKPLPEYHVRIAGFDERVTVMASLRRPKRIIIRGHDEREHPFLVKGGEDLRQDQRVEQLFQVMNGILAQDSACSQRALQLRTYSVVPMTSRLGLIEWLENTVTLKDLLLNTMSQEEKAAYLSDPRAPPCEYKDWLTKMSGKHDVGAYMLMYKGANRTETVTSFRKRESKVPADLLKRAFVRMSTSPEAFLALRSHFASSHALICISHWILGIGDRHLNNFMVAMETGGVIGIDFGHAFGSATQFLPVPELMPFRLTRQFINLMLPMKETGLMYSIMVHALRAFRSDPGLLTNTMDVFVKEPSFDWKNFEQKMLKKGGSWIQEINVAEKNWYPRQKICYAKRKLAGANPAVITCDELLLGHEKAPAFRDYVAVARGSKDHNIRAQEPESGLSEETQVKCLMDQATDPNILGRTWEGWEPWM

With `CN(C)[C@H]1C[C@@]23CC[C@@]4(O2)C(=CC[C@]2(C)C(c5ccc6ccncc6c5)=CC[C@H]24)C=C3[C@@H](O)[C@@H]1O` [dCA, didehydro-Cortistatin A] the “T1/2 hepatic microsomes, Human” value [1] was 1 h, the “drug levels relative to the EC50 of cell-based assays” value ([2]; 1 h after dosing, 10 mg/kg) was “greater than 1000 fold” and the “plasma drug levels for all mice” value ([2]; 24 h post dose, 10 mg/kg) was “above 30 nM”. The health of mice ([2]; after 24 h treatment, 10 mg/kg) was “still healthy”, the bioavailability in mice ([2]; mouse, in vivo) was “good bioavailability” and the “interaction with DNA-PK” value [3] was “interaction”. For the same compound, the “transcription from CXCR4, TK, PGK or CD4 promoters” value [4] was “not affected” and the “association of RNAPII with the HIV promoter and ORF” value [5] was “significantly decreased”.
